Measurements taken from ChEMBL document CHEMBL5715937, “In vitro activity of Bcr-Abl inhibitors AMN107 and BMS-354825 against clinically relevant imatinib-resistant Abl kinase domain mutants” (Cancer Res, 2005).
Activity calls are given as the source filed them. The rule behind the calls is not given here.

Legend:
[1] = test system: BaF3; assay: Induction of apoptosis in mouse BaF3 cells expressing wild-type Bcr-Abl at 30 to 300 nM incubated for 72 hrs by Annexin V-phycoerythrin and 7-amino-actinomycin D staining based PCA instrument analysis; type: functional, cell-based; settings: dose 30-300 nM
[2] = Inhibition of BCR-ABL H396P mutant (unknown origin) expressed in mouse BaF3 cells assessed as inhibition of cell growth incubated for 72 hrs by […] CellTiter96 viability analysis
[3] = Inhibition of BCR-ABL Q252H mutant (unknown origin) expressed in mouse BaF3 cells assessed as inhibition of cell growth incubated for 72 hrs by […] CellTiter96 viability analysis
[4] = cells; settings: Mus musculus, BaF3, 3 h
[5] = Inhibition of BCR-ABL H396P mutant (unknown origin) expressed in mouse BaF3 cells assessed as inhibition of tyrosine phosphorylation incubated for 3 hrs by immunoblotting analysis; type: cell-based; settings: BaF3, 3 h
[6] = Inhibition of BCR-ABL F311L mutant (unknown origin) expressed in mouse BaF3 cells assessed as inhibition of cell growth incubated for 72 hrs by […] CellTiter96 viability analysis
[7] = test system: BaF3; assay: Induction of apoptosis in mouse BaF3 cells expressing Bcr-Abl V379l mutant at 30 to 300 nM incubated for 72 hrs by Annexin V-phycoerythrin and 7-amino-actinomycin D staining based PCA instrument analysis; type: functional, cell-based; settings: dose 30-300 nM
[8] = test system: BaF3; assay: Induction of apoptosis in mouse BaF3 cells expressing Bcr-Abl G250E mutant at 30 to 300 nM incubated for 72 hrs by Annexin V-phycoerythrin and 7-amino-actinomycin D staining based PCA instrument analysis; type: functional, cell-based; settings: dose 30-300 nM
[9] = test system: BaF3; assay: Induction of apoptosis in mouse BaF3 cells expressing Bcr-Abl F311L mutant assessed as increase in apoptotic cells at 1500 nM incubated for 72 hrs by Annexin V-phycoerythrin and 7-amino-actinomycin D staining based PCA instrument analysis relative to control; type: functional
[10] = test system: BaF3; assay: Induction of apoptosis in mouse BaF3 cells expressing Bcr-Abl E255V mutant assessed as increase in apoptotic cells at 1500 nM incubated for 72 hrs by Annexin V-phycoerythrin and 7-amino-actinomycin D staining based PCA instrument analysis relative to control; type: functional
[11] = cells; settings: Mus musculus, BaF3, 3 h; remark: listed apart in the source
[12] = Inhibition of BCR-ABL M244V mutant (unknown origin) expressed in mouse BaF3 cells assessed as inhibition of cell growth incubated for 72 hrs by […] CellTiter96 viability analysis; settings: BaF3, time 72 hrs, condition chronic myelogenous leukemia
[13] = test system: BaF3; assay: Induction of apoptosis in mouse BaF3 cells expressing Bcr-Abl T315l mutant assessed as increase in apoptotic cells at 1500 nM incubated for 72 hrs by Annexin V-phycoerythrin and 7-amino-actinomycin D staining based PCA instrument analysis relative to control; type: functional
[14] = test system: BaF3; assay: Induction of apoptosis in mouse BaF3 cells at 30 to 1500 nM incubated for 72 hrs by Annexin V-phycoerythrin and 7-amino-actinomycin D staining based PCA instrument analysis relative to control; type: toxicity, cell-based; settings: baf3, 72 h, 1.5 µM, dose 30-1500 nM
[15] = Inhibition of BCR-ABL phosphorylation in mouse BaF3 cells incubated for 3 hrs by immunoblotting analysis; type: functional, cell-based
[16] = test system: BaF3; assay: Induction of apoptosis in mouse BaF3 cells expressing Bcr-Abl E255V mutant at 30 to 300 nM incubated for 72 hrs by Annexin V-phycoerythrin and 7-amino-actinomycin D staining based PCA instrument analysis; type: functional, cell-based; settings: dose 30-300 nM
[17] = test system: BaF3; assay: Induction of apoptosis in mouse BaF3 cells expressing wild-type Bcr-Abl assessed as increase in apoptotic cells at 1500 nM incubated for 72 hrs by Annexin V-phycoerythrin and 7-amino-actinomycin D staining based PCA instrument analysis relative to control; type: functional
[18] = test system: BaF3; assay: Induction of apoptosis in mouse BaF3 cells expressing Bcr-Abl T315I mutant at 30 to 1500 nM incubated for 72 hrs by Annexin V-phycoerythrin and 7-amino-actinomycin D staining based PCA instrument analysis relative to control; type: functional, cell-based; settings: dose 30-1500 nM
[19] = test system: BaF3; assay: Induction of apoptosis in mouse BaF3 cells expressing Bcr-Abl L387M mutant assessed as increase in apoptotic cells at 1500 nM incubated for 72 hrs by Annexin V-phycoerythrin and 7-amino-actinomycin D staining based PCA instrument analysis relative to control; type: functional
[20] = Inhibition of BCR-ABL F311L mutant (unknown origin) expressed in mouse BaF3 cells assessed as inhibition of tyrosine phosphorylation incubated for 3 hrs by immunoblotting analysis; type: cell-based; settings: BaF3, 3 h
[21] = Inhibition of BCR-ABL E255K mutant (unknown origin) expressed in mouse BaF3 cells assessed as inhibition of cell growth incubated for 72 hrs by […] CellTiter96 viability analysis
[22] = Inhibition of BCR-ABL E255V mutant (unknown origin) expressed in mouse BaF3 cells assessed as inhibition of cell growth incubated for 72 hrs by […] CellTiter96 viability analysis
[23] = test system: BaF3; assay: Induction of apoptosis in mouse BaF3 cells expressing Bcr-Abl M351T mutant at 30 to 300 nM incubated for 72 hrs by Annexin V-phycoerythrin and 7-amino-actinomycin D staining based PCA instrument analysis; type: functional, cell-based; settings: dose 30-300 nM
[24] = Inhibition of BCR-ABL L387M mutant (unknown origin) expressed in mouse BaF3 cells assessed as inhibition of cell growth incubated for 72 hrs by […] CellTiter96 viability analysis; settings: BaF3, time 72 hrs, condition chronic myelogenous leukemia
[25] = test system: BaF3; assay: Induction of apoptosis in mouse BaF3 cells expressing Bcr-Abl F311L mutant at 30 to 300 nM incubated for 72 hrs by Annexin V-phycoerythrin and 7-amino-actinomycin D staining based PCA instrument analysis; type: functional, cell-based; settings: dose 30-300 nM
[26] = test system: BaF3; assay: Induction of apoptosis in mouse BaF3 cells expressing Bcr-Abl H396P mutant at 30 to 300 nM incubated for 72 hrs by Annexin V-phycoerythrin and 7-amino-actinomycin D staining based PCA instrument analysis; type: functional, cell-based; settings: dose 30-300 nM
[27] = cells; settings: Mus musculus, BaF3, 3 h; remark: listed apart in the source
[28] = test system: BaF3; assay: Induction of apoptosis in mouse BaF3 cells expressing Bcr-Abl Q252H mutant assessed as increase in apoptotic cells at 1500 nM incubated for 72 hrs by Annexin V-phycoerythrin and 7-amino-actinomycin D staining based PCA instrument analysis relative to control; type: functional
[29] = test system: BaF3; assay: Induction of apoptosis in mouse BaF3 cells expressing Bcr-Abl Q252H mutant at 30 to 300 nM incubated for 72 hrs by Annexin V-phycoerythrin and 7-amino-actinomycin D staining based PCA instrument analysis; type: functional, cell-based; settings: dose 30-300 nM
[30] = Inhibition of BCR-ABL F359V mutant (unknown origin) expressed in mouse BaF3 cells assessed as inhibition of cell growth incubated for 72 hrs by […] CellTiter96 viability analysis
[31] = cells; settings: Mus musculus, BaF3, 3 h; remark: listed apart in the source
[32] = BaF3, time 72 hrs, condition chronic myelogenous leukemia

For `Cc1cn(-c2cc(NC(=O)c3ccc(C)c(Nc4nccc(-c5cccnc5)n4)c3)cc(C(F)(F)F)c2)cn1` [NILOTINIB], the Activity [1] was “Active”, the IC50 ([2]; BaF3, 72 h) was 41 nM and the IC90 [2, 32] was 69 nM. For the same compound, the IC50 ([3]; BaF3, 72 h) was 70 nM, the IC90 [3, 32] was 156 nM and the IC50 [4] was 8 nM. For the same compound, the IC50 [5] was 70 nM, the IC50 ([6]; BaF3, 72 h) was 23 nM and the IC90 [6, 32] was 48 nM. For the same compound, the Activity [7] was “Active”, the Activity [8] was “Active” and the Activity [9] was >90%. It also gave an Activity [10] of 65%, an IC50 [11] of 43 nM and an IC90 [12] of 56 nM. The Activity [13] was 3%, the Activity [14] was “Non-Toxic” and the IC50 [15] was “Not Active”. The Activity [16] was “Active”, the Activity [17] was >90% and the Activity [18] was “inactive”. For the same compound, the Activity [19] was >90%, the IC50 [20] was 44 nM and the IC50 ([21]; BaF3, 72 h) was 200 nM. The IC90 [21, 32] was 415 nM, the IC50 ([22]; BaF3, 72 h) was 430 nM and the IC90 [22, 32] was 2000 nM. The Activity [23] was “Active”, the IC90 [24] was 115 nM and the Activity [25] was “Active”. For the same compound, the Activity [26] was “Active”, the IC50 [27] was 15 nM and the Activity [28] was >90%. For the same compound, the Activity [29] was “Active”, the IC50 ([30]; BaF3, 72 h) was 175 nM and the IC90 [30, 32] was 385 nM. It also gave an IC50 [31] of 47 nM.
